Data taken from PMC7937321 (Genes and Environment, 2021).
Like-named read-outs stand apart in the source and are kept apart here.

Legend:
[1] = system: TA1538, TA100, TA98, TA97, TA1535; conditions: cited from earlier work
[2] = Cytotoxicity in the TK6 assay (CE, RS, RSG, RTG); conditions: human; for viability at 24 h, 173.7 μg/mL: 173.70 μg/mL; for viability at 24 h, 277.9 μg/mL: 277.90 μg/mL; for viability at 4 h, 444.7 μg/mL: dose 444.70 μg/mL
Method: (§1) Briefly, test substances were dissolved in an appropriate solvent (DMSO or ethanol) and then serially diluted to prepare final concentrations. […] The 4 h and 24 h treatments were conducted by shaking and static exposures, respectively. After treatment with test substances, cells were centrifuged (1000 rpm, 5 min), supernatants were removed, and cells were washed with a serum-free medium or Hank’s Balanced Salt Solution. After centrifugation (1000 rpm, 5 min) to remove the supernatant, cells (2 × 10^7 cells) were dispersed in an RPMI medium containing 10% serum, and cell concentration was measured. Treated cells were cultured at 37 °C with 5% CO2 condition and used for TK6 assays. At that time, to calculate the cloning efficiency (CE) (Eq. 1), the cells were cultured in a 96-well microplate at a concentration of about 1.6 cells/well for 2 weeks.
(§2) CE, the cell colony formation rate, was calculated using Eq. 1 according to the Poisson distribution equation. EW was the number of wells without colonies, and TW was the total number of wells. N was the average number of cells per well (N = 1.6). 1 CE=−lnEW/TW/N
(§3) Additionally, CE was adjusted by the following calculation (Eq. 2) due to cell loss when exposure caused cytotoxicity. “The number of cells at the end of the treatment” was the number of cells obtained after centrifugation at the end of the treatment in the above-described exposure treatment of the test substance. The “cell number at the start of treatment” was 2 × 10^7. 2 AdjustedCE=CE×number of cellsatendof treatment/number of cellsatthe start of treatment
(§4) CE0 seeding, in which cells were seeded immediately after treatment, and CE3 seeding, in which cells were seeded 3 days after treatment, to examine cell viability in the TK6 assay described below. The relative cell viability RS0 (%) just after the treatment with the test substance was calculated from CE0, following Eq. 3. The survival rate of the negative control group was defined as 100%. 3 RS0%=adjusted CE0 of treatment culture/adjusted CE0 of solvent control×100
(§5) The TK6 assay is conducted between 20 and 10% RS0 as a maximum dose if cytotoxicity is observed. […] When the main TK6 assay was difficult to conduct under the condition of RS0 values from 20 to 10%, the test was conducted between 20 and 10% relative total growth (RTG), described later, as a maximum dose.
(§6) Besides RS0, relative suspension growth (RSG) and RTG as other cytotoxicity indices (Eq. 4) were used. When cells were cultured for 3 days after treatment with the test substance, suspension cell growth ratio 1 (SG1) was the growth ratio from day 0 to day 1 (cell concentration on day 1/cell concentration on day 0). The suspension cell growth ratio 2 (SG2) was the growth ratio from day 1 to day 2 (cell concentration on day 2/cell concentration on day 1). The RSG value was calculated by dividing the total SG value of the untreated group for 3 days by the total SG value of the treated group for the same 3 days (Eq. 4).
(§7) On the third day of culture, CE3 plates for determining plating efficiency and mutant frequency (MF) plates for mutation detection were prepared. CE3 plates were seeded in 96-well microplates at a concentration of about 1.6 cells/well.

[3] = system: TK6 cells; test: Cytotoxicity in the TK6 assay (CE, RS, RSG, RTG); conditions: for RS: graph data
Method: as §1, §2, §3, §4, §5, §6, §7

[4] = TK6 cells with rat liver S9 mix, CE0 (%), cell viability on Day 0, Short treatment, +S9 mix
[5] = TK6 cells with rat liver S9 mix, CE3 (%), cell viability on Day 3, Short treatment, +S9 mix
[6] = TK6 cells without S9 mix, CE0 (%), cell viability on Day 0, 24 h treatment, -S9 mix
[7] = TK6 cells without S9 mix, CE0 (%), cell viability on Day 0, Short treatment, -S9 mix
[8] = TK6 cells without S9 mix, CE3 (%), cell viability on Day 3, 24 h treatment, -S9 mix
[9] = TK6 cells without S9 mix, CE3 (%), cell viability on Day 3, Short treatment, -S9 mix
[10] = 24 h treatment, -S9 mix, 173.70 μg/mL
[11] = 24 h treatment, -S9 mix, 277.90 μg/mL
[12] = 24 h treatment, -S9 mix, 444.70 μg/mL
[13] = 24 h treatment, -S9 mix, 711.5 μg/mL
[14] = 24 h treatment, -S9 mix, 1138.4 μg/mL
[15] = 24 h treatment, -S9 mix, 1821.4 μg/mL
[16] = Short treatment, +S9 mix, dose 173.7 μg/mL
[17] = Short treatment, +S9 mix, dose 277.9 μg/mL
[18] = Short treatment, +S9 mix, dose 445 μg/mL
[19] = Short treatment, +S9 mix, dose 712 μg/mL
[20] = Short treatment, +S9 mix, dose 1138 μg/mL
[21] = Short treatment, +S9 mix, dose 1821 μg/mL
[22] = Short treatment, -S9 mix, dose 173.70 μg/mL
[23] = Short treatment, -S9 mix, dose 277.90 μg/mL
[24] = Short treatment, -S9 mix, dose 444.70 μg/mL
[25] = Short treatment, -S9 mix, dose 711.5 μg/mL
[26] = Short treatment, -S9 mix, dose 1138.4 μg/mL
[27] = Short treatment, -S9 mix, dose 1821.4 μg/mL

Nc1cc([N+](=O)[O-])ccc1C(=O)O [4-Nitroanthranilic acid]
The Highest Specific Activity and the Strain ([1]; TA100 with S9, ref Table 2): 2830 revertants/mg
The Highest Specific Activity and the Strain ([1]; TA1535 with S9, ref [33]): 3600 revertants/mg
Bacterial reverse mutation assay, With S9 ([1]; with S9, ref [18]-[40], Table 2): Pos
Bacterial reverse mutation assay, Without S9 ([1]; without S9, ref [18]-[40], Table 2): Pos
viability at 4 h, 173.7 μg/mL ([2]; TK6 cells with rat liver S9 mix, CE0 (%), cell viability on Day 0, Short treatment, +S9 mix, dose 173.7 μg/mL): 84.1%
viability at 4 h, 277.9 μg/mL ([2]; TK6 cells with rat liver S9 mix, CE0 (%), cell viability on Day 0, Short treatment, +S9 mix, dose 277.9 μg/mL): 98%
viability at 4 h, 445 μg/mL [2, 4]: 72.7%
viability at 4 h, 712 μg/mL [2, 4]: 79.3%
viability at 4 h, 1138 μg/mL [2, 4]: 108%
viability at 4 h, 1821 μg/mL [2, 4]: 3.3%
viability at 4 h, 173.7 μg/mL ([2]; TK6 cells with rat liver S9 mix, CE3 (%), cell viability on Day 3, Short treatment, +S9 mix, dose 173.7 μg/mL): 70.6%
viability at 4 h, 277.9 μg/mL ([2]; TK6 cells with rat liver S9 mix, CE3 (%), cell viability on Day 3, Short treatment, +S9 mix, dose 277.9 μg/mL): 66.7%
viability at 4 h, 445 μg/mL [2, 5]: 81.6%
viability at 4 h, 712 μg/mL [2, 5]: 98%
viability at 4 h, 1138 μg/mL [2, 5]: 84.1%
viability at 4 h, 1821 μg/mL [2, 5]: 44.6%
viability at 24 h, 173.7 μg/mL [2, 6]: 47.4%
viability at 24 h, 277.9 μg/mL [2, 6]: 23.4%
viability at 24 h, 444.7 μg/mL ([2]; TK6 cells without S9 mix, CE0 (%), cell viability on Day 0, 24 h treatment, -S9 mix, 444.70 μg/mL): 42%
viability at 24 h, 711.5 μg/mL [2, 6]: 42%
viability at 24 h, 1138.4 μg/mL ([2]; TK6 cells without S9 mix, CE0 (%), cell viability on Day 0, 24 h treatment, -S9 mix, 1138.4 μg/mL): 30.4%
viability at 24 h, 1821.4 μg/mL [2, 6]: 24.4%
viability at 4 h, 173.7 μg/mL ([2]; TK6 cells without S9 mix, CE0 (%), cell viability on Day 0, Short treatment, -S9 mix, dose 173.70 μg/mL): 120%
viability at 4 h, 277.9 μg/mL ([2]; TK6 cells without S9 mix, CE0 (%), cell viability on Day 0, Short treatment, -S9 mix, dose 277.90 μg/mL): 77%
viability at 4 h, 444.7 μg/mL [2, 7]: 77%
viability at 4 h, 711.5 μg/mL [2, 7]: 74.8%
viability at 4 h, 1138.4 μg/mL [2, 7]: 46%
viability at 4 h, 1821.4 μg/mL [2, 7]: 29.4%
viability at 24 h, 173.7 μg/mL [2, 8]: 84.1%
viability at 24 h, 277.9 μg/mL [2, 8]: 84.1%
viability at 24 h, 711.5 μg/mL [2, 8]: 68.7%
viability at 24 h, 1821.4 μg/mL [2, 8]: 43.3%
viability at 4 h, 173.7 μg/mL ([2]; TK6 cells without S9 mix, CE3 (%), cell viability on Day 3, Short treatment, -S9 mix, dose 173.70 μg/mL): 89.3%
viability at 4 h, 277.9 μg/mL ([2]; TK6 cells without S9 mix, CE3 (%), cell viability on Day 3, Short treatment, -S9 mix, dose 277.90 μg/mL): 77%
viability at 4 h, 444.7 μg/mL [2, 9]: 105%
viability at 4 h, 711.5 μg/mL [2, 9]: 101%
viability at 4 h, 1138.4 μg/mL [2, 9]: 95%
viability at 4 h, 1821.4 μg/mL [2, 9]: 105%
cytotoxicity ([3]; 1138 μg/mL, short-term without metabolic activation): More than 50%
cytotoxicity ([3]; 1821 μg/mL, long-term treatment): More than 80%
cytotoxicity ([3]; 1821 μg/mL, short-term with metabolic activation): approximately 100%
cytotoxicity ([3]; 1821 μg/mL, short-term without metabolic activation): More than 50%
Adjusted CE0(%) [3, 10]: 111.3%
RS0 (%) [3, 10]: 133.0%
RSG [3, 10]: 1.273
Adjusted CE0(%) [3, 11]: 40.4%
RS0 (%) [3, 11]: 48.3%
RSG [3, 11]: 0.978
Adjusted CE0(%) [3, 12]: 71.5%
RS0 (%) [3, 12]: 85.4%
RSG [3, 12]: 1.146
Adjusted CE0(%) [3, 13]: 49.4%
RS0 (%) [3, 13]: 59.0%
RSG [3, 13]: 1.081
Adjusted CE0(%) [3, 14]: 26.6%
RS0 (%) [3, 14]: 31.8%
RSG [3, 14]: 0.835
Adjusted CE0(%) [3, 15]: 14.0%
RS0 (%) [3, 15]: 16.7%
RSG [3, 15]: 0.892
Adjusted CE0(%) [3, 16]: 84.1%
RS0 (%) [3, 16]: 71.1%
RSG [3, 16]: 1.078
Adjusted CE0(%) [3, 17]: 107.8%
RS0 (%) [3, 17]: 91.1%
RSG [3, 17]: 0.902
Adjusted CE0(%) [3, 18]: 58.9%
RS0 (%) [3, 18]: 49.8%
RSG [3, 18]: 0.653
Adjusted CE0(%) [3, 19]: 79.3%
RS0 (%) [3, 19]: 67.0%
RSG [3, 19]: 0.824
Adjusted CE0(%) [3, 20]: 96.3%
RS0 (%) [3, 20]: 81.4%
RSG [3, 20]: 0.854
Adjusted CE0(%) [3, 21]: 3.0%
RS0 (%) [3, 21]: 2.6%
RSG [3, 21]: 0.036
Adjusted CE0(%) [3, 22]: 132.4%
RS0 (%) [3, 22]: 186.4%
RSG [3, 22]: 1.135
Adjusted CE0(%) [3, 23]: 61.6%
RS0 (%) [3, 23]: 86.8%
RSG [3, 23]: 0.893
Adjusted CE0(%) [3, 24]: 84.7%
RS0 (%) [3, 24]: 119.3%
RSG [3, 24]: 0.880
Adjusted CE0(%) [3, 25]: 60.6%
RS0 (%) [3, 25]: 85.4%
RSG [3, 25]: 0.786
Adjusted CE0(%) [3, 26]: 33.1%
RS0 (%) [3, 26]: 46.6%
RSG [3, 26]: 0.678
Adjusted CE0(%) [3, 27]: 22.9%
RS0 (%) [3, 27]: 32.3%
RSG [3, 27]: 0.302
CE3 ([3]; as fraction in mutation frequency table, 24 h treatment, -S9 mix, 173.70 μg/mL): 0.841
CE3 ([3]; as fraction in mutation frequency table, 24 h treatment, -S9 mix, 277.90 μg/mL): 0.841
CE3 ([3]; as fraction in mutation frequency table, 24 h treatment, -S9 mix, 444.70 μg/mL): 0.793
CE3 ([3]; as fraction in mutation frequency table, 24 h treatment, -S9 mix, 711.5 μg/mL): 0.687
CE3 ([3]; as fraction in mutation frequency table, 24 h treatment, -S9 mix, 1138.4 μg/mL): 0.950
CE3 ([3]; as fraction in mutation frequency table, 24 h treatment, -S9 mix, 1821.4 μg/mL): 0.433
CE3 ([3]; as fraction, mutation frequency table, Short treatment, +S9 mix, dose 173.7 μg/mL): 0.706
CE3 ([3]; as fraction, mutation frequency table, Short treatment, +S9 mix, dose 277.9 μg/mL): 0.667
CE3 ([3]; as fraction, mutation frequency table, Short treatment, +S9 mix, dose 445 μg/mL): 0.816
CE3 ([3]; as fraction, mutation frequency table, Short treatment, +S9 mix, dose 712 μg/mL): 0.980
CE3 ([3]; as fraction, mutation frequency table, Short treatment, +S9 mix, dose 1138 μg/mL): 0.841
CE3 ([3]; as fraction, mutation frequency table, Short treatment, +S9 mix, dose 1821 μg/mL): 0.446
CE3 ([3]; as fraction, mutation frequency table, Short treatment, -S9 mix, dose 173.70 μg/mL): 0.893
CE3 ([3]; as fraction, mutation frequency table, Short treatment, -S9 mix, dose 277.90 μg/mL): 0.770
CE3 ([3]; as fraction, mutation frequency table, Short treatment, -S9 mix, dose 444.70 μg/mL): 1.046
CE3 ([3]; as fraction, mutation frequency table, Short treatment, -S9 mix, dose 711.5 μg/mL): 1.012
CE3 ([3]; as fraction, mutation frequency table, Short treatment, -S9 mix, dose 1138.4 μg/mL): 0.950
CE3 ([3]; as fraction, mutation frequency table, Short treatment, -S9 mix, dose 1821.4 μg/mL): 1.046
RS ([3]; 24 h, -S9 mix, 173.70 μg/mL): 133.0
RS ([3]; 24 h, -S9 mix, 277.90 μg/mL): 48.3
RS ([3]; 24 h, -S9 mix, 444.70 μg/mL): 85.4
RS ([3]; 24 h, -S9 mix, 711.5 μg/mL): 59.0
RS ([3]; 24 h, -S9 mix, 1138.4 μg/mL): 31.8
RS ([3]; 24 h, -S9 mix, 1821.4 μg/mL): 16.7
RS [3, 16]: 71.1
RS [3, 17]: 91.1
RS [3, 18]: 49.8
RS [3, 19]: 67.0
RS [3, 20]: 81.4
RS [3, 21]: 2.6
RS [3, 22]: 186.4
RS [3, 23]: 86.8
RS [3, 24]: 119.3
RS [3, 25]: 85.4
RS [3, 26]: 46.6
RS [3, 27]: 32.3
